Laboratory results taken from patent US10144715B2, “Piperazine derivatives as liver X receptor modulators” (priority 2014, dated 2018).
Like-named read-outs stand apart in the source and are kept apart here.

Assays:
[1] = molecular target: Gal4 DNA binding domain fused to the LBD of LXRα in HEK293 cells (Homo sapiens (Human), UniProt Q13133); experiment: LXR luciferase transcriptional reporter gene assay, agonist mode, LXRα; assay type: cell-based; settings: for EC50: read-out: Cell LXRα EC50
[2] = molecular target: LXR α LBD protein (Homo sapiens (Human), UniProt Q13133); experiment: LXR α radioligand binding assay (SPA, competition with [3H]TO901317); settings: read-out: LXRα Binding Ki
Chain of LXR α LBD protein (Q13133 209-447): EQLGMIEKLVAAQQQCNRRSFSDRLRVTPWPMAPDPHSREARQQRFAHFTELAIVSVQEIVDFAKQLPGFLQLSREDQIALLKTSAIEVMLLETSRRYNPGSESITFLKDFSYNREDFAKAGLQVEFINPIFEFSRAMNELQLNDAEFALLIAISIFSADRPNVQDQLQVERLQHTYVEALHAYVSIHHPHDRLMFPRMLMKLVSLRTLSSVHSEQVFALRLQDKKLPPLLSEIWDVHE

Chain of Gal4 DNA binding domain fused to the LBD of LXRα in HEK293 cells (Q13133 209-447): as above

In the case of `CS(=O)(=O)c1cccc(N2CCN(c3nccc(C(F)(F)F)n3)[C@H](C(F)(F)F)C2)c1` [7-28, (S)-2-(4-(3-(methylsulfonyl)phenyl)-2-(trifluoromethyl)piperazin-1-yl)-4-(trifluoromethyl)pyrimidine], the “Cell LXRα efficacy” value [1] is reported as 2235 (40) %, the EC50 [1] is reported as 2240 nM and the Ki [2] is reported as 422 nM.

In the case of `CC(C)[C@@H]1CN(c2cccc(S(C)(=O)=O)c2)CCN1c1ccc(C(F)F)cn1` [7-34, (R)-1-(5-(difluoromethyl)pyridin-2-yl)-2-isopropyl-4-(3-(methylsulfonyl)phenyl)piperazine], the “Cell LXRα efficacy” value [1] is reported as 13999 (55) %, the EC50 ([1]; agonist mode) is reported as 14000 nM and the Ki [2] is reported as 3280 nM.

For `CC(C)[C@@H]1CN(c2ccc(F)c(S(C)(=O)=O)c2)CCN1c1ncc(C(F)(F)F)cc1Cl` [7-41, (R)-1-(3-chloro-5-(trifluoromethyl)pyridin-2-yl)-4-(4-fluoro-3-(methylsulfonyl)phenyl)-2-isopropylpiperazine], the “Cell LXRα efficacy” value [1] was 949 (84) %, the EC50 ([1]; agonist mode) was 949 nM and the Ki [2] was 72 nM.

`CC(C)[C@@H]1CN(c2ccc(F)c(S(C)(=O)=O)c2)CCN1c1ncc(C(F)(F)F)cc1[N+](=O)[O-]` [7-42, (R)-4-(4-fluoro-3-(methylsulfonyl)phenyl)-2-isopropyl-1-(3-nitro-5-(trifluoromethyl)pyridin-2-yl)piperazine] was tested, and the “Cell LXRα efficacy” value [1] was 3110 (46) %, the EC50 ([1]; agonist mode) was 3110 nM and the Ki [2] was 623 nM.

`COC(=O)c1ccc(N2CCN(c3ccc(F)c(S(C)(=O)=O)c3)C[C@H]2C(C)C)nc1C(F)(F)F` [7-43, methyl (R)-6-(4-(4-fluoro-3-(methylsulfonyl)phenyl)-2-isopropylpiperazin-1-yl)-2-(trifluoromethyl)nicotinate] was tested, and the “Cell LXRα efficacy” value [1] was 649 (77) %, the EC50 ([1]; agonist mode) was 649 nM and the Ki [2] was 130 nM.

In the case of `Cc1ccc(N2CCN(c3cccc(S(C)(=O)=O)c3)C[C@H]2C(C)C)nn1` [7-46, (R)-3-(2-isopropyl-4-(3-(methylsulfonyl)phenyl)piperazin-1-yl)-6-methylpyridazine], the “Cell LXRα efficacy” value [1] is reported as 14681 (71) %, the EC50 ([1]; agonist mode) is reported as 14700 nM and the Ki [2] is reported as 13600 nM.

With `CC(C)[C@@H]1CN(c2cccc(S(C)(=O)=O)c2)CCN1c1ccc(C2CC2)nn1` [7-47, (R)-3-cyclopropyl-6-(2-isopropyl-4-(3-(methylsulfonyl)phenyl)piperazin-1-yl)pyridazine] the “Cell LXRα efficacy” value [1] was 4921 (84) %, the EC50 [1] was 4920 nM and the Ki [2] was 3100 nM.

For `CC(C)[C@@H]1CN(c2cccc(S(C)(=O)=O)c2)CCN1c1ccc(C(F)(F)F)nn1` [7-48, (R)-3-(2-isopropyl-4-(3-(methylsulfonyl)phenyl)piperazin-1-yl)-6-(trifluoromethyl)pyridazine], the “Cell LXRα efficacy” value [1] was 2110 (98) %, the EC50 [1] was 2110 nM and the Ki [2] was 877 nM.

For `CC(C)[C@@H]1CN(c2ccc(F)c(S(C)(=O)=O)c2)CCN1c1ccc(C(F)(F)F)nn1` [7-49, (R)-3-(4-(4-fluoro-3-(methylsulfonyl)phenyl)-2-isopropylpiperazin-1-yl)-6-(trifluoromethyl)pyridazine], the “Cell LXRα efficacy” value [1] was 1335 (112) %, the EC50 ([1]; agonist mode) was 1340 nM and the Ki [2] was 508 nM.

For `CCOC(=O)c1cnc(N2CCN(c3ccc(F)c(S(C)(=O)=O)c3)C[C@H]2CC(C)C)nc1C(F)(F)F` [9-7, ethyl (R)-2-(4-(4-fluoro-3-(methylsulfonyl)phenyl)-2-isobutylpiperazin-1-yl)-4-(trifluoromethyl)pyrimidine-5-carboxylate], the “Cell LXRα efficacy” value [1] was 960 (34) %, the EC50 ([1]; agonist mode) was 960 nM and the Ki [2] was 33 nM.

With `CCOC(=O)c1cnc(N2CCN(c3ccc(COC(C)=O)c(S(C)(=O)=O)c3)C[C@H]2C(C)C)nc1C(F)(F)F` [9-10, ethyl (R)-2-(4-(4-(acetoxymethyl)-3-(methylsulfonyl)phenyl)-2-isopropylpiperazin-1-yl)-4-(trifluoromethyl)pyrimidine-5-carboxylate] the “Cell LXRα efficacy” value [1] was 243 (59) %, the EC50 ([1]; agonist mode) was 243 nM and the Ki [2] was 96 nM.

In the case of `CCOC(=O)c1cnc(N2CCN(c3ccc(-c4nc(C)no4)c(S(C)(=O)=O)c3)C[C@H]2C(C)C)nc1C(F)(F)F` [9-12, ethyl (R)-2-(2-isopropyl-4-(4-(3-methyl-1,2,4-oxadiazol-5-yl)-3-(methylsulfonyl)phenyl)piperazin-1-yl)-4-(trifluoromethyl)pyrimidine-5-carboxylate], the “Cell LXRα efficacy” value [1] is reported as 15144 (26) %, the EC50 ([1]; agonist mode) is reported as 15100 nM and the Ki [2] is reported as 2290 nM.

In the case of `CCOC(=O)c1cnc(N2CCN(c3ccc(-c4nc(C(N)=O)cs4)c(S(C)(=O)=O)c3)C[C@H]2C(C)C)nc1C(F)(F)F` [9-14, ethyl (R)-2-(4-(4-(4-carbamoylthiazol-2-yl)-3-(methylsulfonyl)phenyl)-2-isopropylpiperazin-1-yl)-4-(trifluoromethyl)pyrimidine-5-carboxylate], the “Cell LXRα efficacy” value [1] is reported as 3003 (28) %, the EC50 [1] is reported as 3000 nM and the Ki [2] is reported as 407 nM.

With `Cc1nnc(-c2ccc(N3CCN(c4ncc(CO)c(C(F)(F)F)n4)[C@H](C(C)C)C3)cc2S(C)(=O)=O)s1` [11-11, (R)-(2-(2-isopropyl-4-(4-(5-methyl-1,3,4-thiadiazol-2-yl)-3-(methylsulfonyl)phenyl)piperazin-1-yl)-4-(trifluoromethyl)pyrimidin-5-yl)methanol] the “Cell LXRα efficacy” value [1] was 3508 (31) %, the EC50 ([1]; agonist mode) was 3510 nM and the Ki [2] was 2050 nM.

With `CC(C)[C@@H]1CN(c2ccc(-c3nc(C(N)=O)cs3)c(S(C)(=O)=O)c2)CCN1c1ncc(CO)c(C(F)(F)F)n1` [11-13, (R)-2-(4-(4-(5-(hydroxymethyl)-4-(trifluoromethyl)pyrimidin-2-yl)-3-isopropylpiperazin-1-yl)-2-(methylsulfonyl)phenyl)thiazole-4-carboxamide] the “Cell LXRα efficacy” value [1] was 2145 (52) %, the EC50 ([1]; agonist mode) was 2150 nM and the Ki [2] was 706 nM.

`CC(O)c1cnc(N2CCN(c3ccc(F)c(S(C)(=O)=O)c3)C[C@H]2c2ccc(F)cc2)nc1C(F)(F)F` (stereo partly drawn) [12-9, 1-(2-((R)-4-(4-fluoro-3-(methylsulfonyl)phenyl)-2-(4-fluorophenyl)piperazin-1-yl)-4-(trifluoromethyl)pyrimidin-5-yl)ethan-1-ol] was tested, and the “Cell LXRα efficacy” value [1] was 4884 (19) %, the EC50 ([1]; agonist mode) was 4880 nM and the Ki [2] was 896 nM.

`CC(C)[C@@H]1CN(c2ccc(CN)c(S(C)(=O)=O)c2)CCN1c1nccc(C(F)(F)F)n1` [15-11, (R)-(4-(3-isopropyl-4-(4-(trifluoromethyl)pyrimidin-2-yl)piperazin-1-yl)-2-(methylsulfonyl)phenyl)methanamine] was tested, and the “Cell LXRα efficacy” value [1] was 4307 (42) %, the EC50 ([1]; agonist mode) was 4310 nM and the Ki [2] was 2180 nM.

With `CC(C)[C@H]1CN(c2ccc(CO)c(S(C)(=O)=O)c2)CCN1Cc1ccc(C(F)(F)F)c(F)c1` [47-3, (S)-(4-(4-(3-fluoro-4-(trifluoromethyl)benzyl)-3-isopropylpiperazin-1-yl)-2-(methylsulfonyl)phenyl)methanol] the “Cell LXRα efficacy” value [1] was 1280 (60) %, the EC50 ([1]; agonist mode) was 1280 nM and the Ki [2] was 422 nM.

In the case of `CC(C)[C@H]1CN(c2cccc(S(C)(=O)=O)c2)CCN1CC1CCC(C)(C)CC1` [48-2, (S)-1-((4,4-dimethylcyclohexyl)methyl)-2-isopropyl-4-(3-(methylsulfonyl)phenyl)piperazine], the “Cell LXRα efficacy” value [1] is reported as 175 (81) %, the EC50 [1] is reported as 175 nM and the Ki [2] is reported as 81 nM.
